How the values were obtained:
[1] = system: Escherichia coli WP2 uvrA; assay: Bacterial Reverse Mutation Assay; settings: with metabolic activation
Protocol: using the preincubation method (30 min, 37°C) with and without phenobarbital-5,6-benzoflavone induced
MG3 was dissolved in distilled water (H2O) at
the maximum concentration of 40 mg/mL and tested in a preliminary range-finding test in all strains of
metabolic activation to determine the toxicity of the compound.

P. yoelii NS = assay: Four-day suppressive Peters' test, oral; type: in vivo, P. yoelii in CD1 mice; settings: once a day for 4 days, parasitemia day 4, CD1 mice
Protocol: (§1) Groups of five CD1 mice were inoculated i.v., with 4 × 10^6 infected erythrocytes/mice. Compounds, dissolved in standard suspending formula (SSV) (0.5% sodium carboxymethylcellulose, 0.5% benzyl alcohol, 0.4% Tween 80, and 0.9% NaCl), were administered once a day for 4 days via oral gavage, starting two hours post-infection. […] Parasitemia was evaluated using microscopic examination of Giemsa-stained blood films taken on day four, processed using MICROSOFT® EXCEL spreadsheets (Microsoft Corp., Redmond, WA, USA), and expressed as percentages of inhibition from the arithmetic mean parasitemia of each group in relation to the untreated group. ED50 and ED90 values were calculated using GraphPad Prism 6 (GraphPad Software Inc., La Jolla, CA, USA).

P. falciparum 3D7 (CQ-S) = assay: In vitro antimalarial activity, [3H]-hypoxanthine incorporation (LSHTM); type: cell-based; settings: Plasmodium falciparum, 3D7; 72 h, [3H]-hypoxanthine incorporation, mean of 3 experiments; read-out: P. falciparum IC50 nM, 3D7 (CQ-S)
[2] = Intrinsic clearance in hepatocytes; type: in vitro ADME
Protocol: (§2) An automatic liquid handling system (Multiprobe II EX, Packard) was used for sampling. At 0, 10, 20, 30, 60 and 90 min, […] aliquots of the incubates were taken and added with […] of ice-cold ACN and […] of 1 µM warfarin in ACN (internal standard), and samples centrifuged at 2000 rpm for 20 min. The analysis of supernatant was conducted using LC-MS/MS. MG3 was incubated in the medium under the same conditions to evaluate the chemical stability; 7-ethoxycoumarin (7-ETC) 1 µM and 7-hydroxycoumarin (7-HC) 30 µM were utilized as positive controls for Phase I and Phase II activities. […] Half-life and CLint were determined from the concentration (counts) remaining at the different sampling points using the LC-MS/MS method. The slope was calculated using linear regression analysis of the curve (natural logarithmic area of the compound remaining against the time) and converted into the half-life (t1/2) and CLint expressed as µL/min/million cells and mL/min/kg, respectively.

mouse hepatocytes = assay: Intrinsic clearance in hepatocytes; type: in vitro ADME; settings: 1 µM
Protocol: as §2

monkey hepatocytes = assay: Intrinsic clearance in hepatocytes; type: in vitro ADME; settings: 1 µM
Protocol: as §2

rat hepatocytes = assay: Intrinsic clearance in hepatocytes; type: in vitro ADME; settings: 1 µM
Protocol: as §2

human hepatocytes = assay: Intrinsic clearance in hepatocytes; type: in vitro ADME; settings: 1 µM
Protocol: as §2

dog hepatocytes = assay: Intrinsic clearance in hepatocytes; type: in vitro ADME; settings: 1 µM
Protocol: as §2

in vivo = assay: in vivo; set-up: species or system male Sprague Dawley rats; settings: male, Sprague Dawley, rat
Protocol: The formulations were prepared on the days of dosing, immediately before administration. MG3 for IV administration was formulated as in situ dimesylate salt, in 5% of glucose solution (4 mg/mL nominal concentration), while for oral administration it was prepared by suspending the test item in 0.5% methocel solution (v/v) (6 mg/mL nominal concentration). […] After 5-days postoperative recovery period, MG3 was administered and serial blood samples (about 0.3 mL) were collected from femoral vein using heparinized syringe at 5, 15, and 30 min, 1, 3, 6, 24-, 48-, 72- and 96-hours post-dosing after IV administration and at 15, and 30 min, 1, 3, 6 and 24-, 48-, 72- and 96-hours post-dosing after oral administration. The samples were then transferred into pre-cooled tubes protected from light and centrifuged at 3000 rpm for 4 min at +4 °C to collect plasma, and single aliquots of plasma were stored at −80 °C until analysis. Sample analysis: 400 µL of methanol was added to 10 µL of plasma in a 96-well plate; after centrifugation for 15 min at 2000 rpm at 6 °C, an aliquot of 360 µL of supernatant was transferred into a new 96-well plate and dried at 40 °C. Sample extracts were reconstituted with a volume of 150 µL of a mixture solution of 10 mM ammonium formate pH 3.5:methanol (90:10; v/v) and centrifuged for 3 min at 2000 rpm at 6 °C and the supernatant was injected onto the LC-MS/MS system. A HP1100 HPLC with a Synergy 4 um Hydro-RP 80A 2.0 × 50 mm column, coupled with AB/MDS Sciex 4000 QTrap in positive ion mode was utilized for analysis; 10 µL samples were injected, a gradient with 10 mM ammonium formate pH 3.5 and methanol was utilized. Data obtained were analyzed using the non-compartmental approach (Watson package v. 6.4.0.04, Thermo Fisher Scientific, Waltham, MA, USA).

P. berghei ANKA = assay: Four-day suppressive Peters' test, oral; type: in vivo, P. berghei in CD1 mice; settings: once a day for 4 days, parasitemia day 4, CD1 mice
Protocol: as §1

CYP2C19 = CYP2C19 (Homo sapiens, UniProt P33261); assay: in vitro
Sequence of CYP2C19 (P33261 whole entry): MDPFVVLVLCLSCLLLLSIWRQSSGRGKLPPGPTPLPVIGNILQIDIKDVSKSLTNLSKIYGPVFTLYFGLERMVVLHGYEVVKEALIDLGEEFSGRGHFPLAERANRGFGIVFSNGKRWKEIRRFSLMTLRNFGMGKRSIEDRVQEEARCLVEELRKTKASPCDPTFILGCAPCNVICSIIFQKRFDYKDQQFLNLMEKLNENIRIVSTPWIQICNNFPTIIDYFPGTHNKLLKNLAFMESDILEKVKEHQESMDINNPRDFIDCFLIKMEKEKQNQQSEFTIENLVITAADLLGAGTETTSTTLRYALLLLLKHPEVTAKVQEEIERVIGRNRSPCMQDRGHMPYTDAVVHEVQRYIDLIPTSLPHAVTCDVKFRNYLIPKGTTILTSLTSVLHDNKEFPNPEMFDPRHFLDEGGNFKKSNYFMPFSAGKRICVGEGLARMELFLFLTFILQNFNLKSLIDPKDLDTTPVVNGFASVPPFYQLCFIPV

## Clc1ccc2c(NCC34CCCN3CCC4)ccnc2c1 [MG3, 7-Chloro-N-((hexahydro-1H-pyrrolizin-7a-yl)methyl)quinolin-4-amine]
[1]; I° Exp., 62.5 µg/plate
  fold increase value (ratio treated/solvent revertant numbers): 1.4
[1]; I° Exp., 125 µg/plate
  fold increase value (ratio treated/solvent revertant numbers): 1.4
[1]; I° Exp., 250 µg/plate
  fold increase value (ratio treated/solvent revertant numbers): 1.5
[1]; I° Exp., 500 µg/plate
  fold increase value (ratio treated/solvent revertant numbers): 0.8
[1]; I° Exp., 1000 µg/plate
  fold increase value (ratio treated/solvent revertant numbers): 0.7
[1]; Range finding, 1.95 µg/plate
  fold increase value (ratio treated/solvent revertant numbers): 1.0
[1]; Range finding, 3.9 µg/plate
  fold increase value (ratio treated/solvent revertant numbers): 0.9
[1]; Range finding, 7.81 µg/plate
  fold increase value (ratio treated/solvent revertant numbers): 0.9
[1]; Range finding, 15.63 µg/plate
  fold increase value (ratio treated/solvent revertant numbers): 0.7
[1]; Range finding, 31.25 µg/plate
  fold increase value (ratio treated/solvent revertant numbers): 0.8
[1]; Range finding, 62.5 µg/plate
  fold increase value (ratio treated/solvent revertant numbers): 0.7
[1]; Range finding, 125 µg/plate
  fold increase value (ratio treated/solvent revertant numbers): 0.9
[1]; Range finding, 250 µg/plate
  fold increase value (ratio treated/solvent revertant numbers): 0.7
[1]; Range finding, 500 µg/plate
  fold increase value (ratio treated/solvent revertant numbers): 0.7
[1]; Range finding, 1000 µg/plate
  fold increase value (ratio treated/solvent revertant numbers): 0.8
P. yoelii NS; Plasmodium yoelii, 96 h, read-out: ED50 (95% CI) Mean
  ED50: 5.01 mg/kg
P. yoelii NS
  ED90 (95% CI) Mean: 8.98 (6.70–12.02) mg/kg
P. falciparum 3D7 (CQ-S)
  IC50: 12.6 nM
[2]; dog hepatocytes
  CLint scaled at 1 µM: 111 mL/min/kg
[2]; human hepatocytes
  CLint scaled at 1 µM: 4.9 mL/min/kg
[2]; monkey hepatocytes
  CLint scaled at 1 µM: 44 mL/min/kg
[2]; mouse hepatocytes
  CLint scaled at 1 µM: 196 mL/min/kg
[2]; rat hepatocytes
  CLint scaled at 1 µM: 51 mL/min/kg
Mouse hepatocytes
  Half/life: 0.517 h
Monkey hepatocytes
  Half/life: 1.43 h
Rat hepatocytes
  Half/life: 1.08 h
Human hepatocytes
  Half/life: 5.67 h
Dog hepatocytes
  Half/life: 0.8 h
In vivo; iv, 10 mg/kg
  AUC(0-inf): 1300 ± 223 ng·h/mL
  AUC(0-t): 1290 ± 217 ng·h/mL
  Cmax: 395 ± 118 ng/mL
  Vd: 59.9 L/kg
  clearance: 139 ± 20.2 mL/min/kg
  half-life: 7.7 ± 0.6 h
  tlast: 48.0 ± 0.1 h
In vivo; po, 30 mg/kg
  AUC(0-inf): 4400 ± 633 ng·h/mL
  AUC(0-t): 4360 ± 630 ng·h/mL
  Cmax: 213 ± 23.7 ng/mL
  half-life: 10.7 ± 1.2 h
  still detectable in the plasma up to: 72 to 96 h
  tlast: 80.0 ± 13.9 h
P. berghei ANKA; Plasmodium berghei, 96 h, read-out: ED50 (95% CI) Mean
  ED50: 5.22 mg/kg
P. berghei ANKA
  ED90 (95% CI) Mean: 7.55 (6.38–8.72) mg/kg
CYP2C19
  inhibition at 3 µM: < 3%
